According to patent publication US20130064855A1, “REPROGRAMMING IMMUNE ENVIRONMENT IN BREAST CANCER VIA DENDRITIC CELLS” (BAYLOR RESEARCH INSTITUTE, priority 2011, published 2013):
“Also recorded” adds a separate entry of the source.

Columns and labels:
[1] = system: Hs578T breast cancer cells; test: breast tumor growth in tumor bearing humanized mice; format: in vivo, NOD/SCID/β2−/− mice; conditions: curdlan (100 ug/ml) co-injected with DCs and T cells at days 3, 6 and 9 post tumor implantation
Description: Tumor bearing humanized mice: CD34+hematopoietic progenitor cells (HPCs) were obtained from apheresis of adult healthy volunteers mobilized with G-CSF and purified as previously described. The CD34− fraction of apheresis was Ficoll purified, and obtained PBMCs were stored frozen and used as a source of autologous T cells. Three million CD34+HPCs were transplanted intravenously into sublethally irradiated (12 cGy/g body weight of 137Cs γ irradiation) NOD/SCID/β2−/− mice ([…]). After 4 weeks of engraftment 10 million Hs578T breast cancer cells were harvested from cultures and injected subcutaneously into the flanks of the mice. Mice were reconstituted with 10 million CD4+ T cells and 10 million CD8+ T cells autologous to the grafted CD34+ HPCs. CD4+ and CD8+ T cells were positively selected from thawed PBMCs using magnetic selection according to the manufacturer's instructions (Miltenyi Biotec). The purity was routinely >90%. […] Tumor size was monitored every 2-3 d. Tumor volume (ellipsoid) was calculated as follows: [(short diameter)^2×long diameter]/2.
FIGS. 6A and 6B show NOD/SCID/β2−/− mice sub-lethally irradiated the day before tumor implantation. […] Tumor size was monitored every 2-3 d. Tumor volume (ellipsoid) was calculated as follows: [(short diameter)^2×long diameter]/2. […] Supernatant was harvested and cytokines were detected by Luminex.

CD8+ T cells = test: curdlan-treated, tumor supernatant-activated mDCs co-cultured with allogenic naive total T cells; CD103 staining; format: cell-based, human; conditions: mDCs pre-treated with 100 ug/ml curdlan, MDA-MB231 supernatant 48 hrs, co-culture one week
Procedure: Sorted mDCs (HLA-DR+/CD11c+/CD123−/Lin−) were pre-treated with 100 ug/ml curdlan and activated by supernatant of a breast cancer cell line (MDA-MB231) for 48 hrs and then co-culture with allogenic naive total T cells (FIG. 7A). After one week, cells were collected and stained with intraepithelial marker, CD 103, together with granzymeA and granzymeB staining CD8+ T cells were sorted from in vitro culture and intratumoral inject into NOD-SCID mice. After 3 days, tumors were harvested and digested with collagenase (FIG. 7B).

[2] = system: allogenic naive CD4+ T cells; test: curdlan-treated, tumor supernatant-activated mDCs co-cultured with allogenic naive CD4+ T cells; intracellular cytokines; format: cell-based, human; conditions: mDCs pre-treated with 100 ug/ml curdlan, MDA-MB231 supernatant 48 hrs, co-culture one week
Description: After one week, cells were collected and re-stimulated for intracellular cytokines analysis. The analysis of different studies showing the effect of curdlan treatment in the induction of TNFa+IL-13+ secreting cells is shown in FIG. 5 B.

[3] = system: myeloid dendritic cells (mDCs); test: mDCs pre-treated with curdlan and cultured with breast tumor derived products; phenotype staining and cytokine in supernatant; format: cell-based, human
Description: Isolation and culture of myeloid dendritic cells: DCs were purified from buffy coat of blood from healthy donors. Briefly, DCs were enriched from mononuclear cells by negative selection using a mixture of antibodies against lineage markers for CD3, CD14, CD16, CD19, CD56 and glycophorin A (Dynabeads® Human DC Enrichment Kit, Invitrogen). Cells from negative fraction were immuno-labeled with anti-human FITC-labeled lineage cocktail (CD3, CD14, CD16, CD19, CD20 and CD56, BD biosciences Cat. 340546); PE-labeled CD123 (mIgG1, clone 9F5, BD biosciences Cat. 340545), QR-labeled HLA-DR (mIgG2a, clone HK14, Sigma-Aldrich Cat. R8144) and APC-labeled CD11c (mIgG2b, clone S—HCL-3, BD biosciences Cat. 340544). DCs (lin^−, CD123^−, HLA-DR^+, CD11c^+) were sorted in a FACS Aria cytometer (BD Bioscience). DCs were seeded at 100×10^3 cells/well in 200 μl of medium (RPMI supplemented with glutamine 2 mM, penicillin 50 U/ml, streptomycin 50 μg/ml, MEM non-essential amino acids 0.1 mM, HEPES buffer 10 mM, sodium pyruvate 0.1 mM and 10% of human AB serum). DCs were cultured with medium alone or in the presence of 20 ng/ml of TSLP, or different tumor derived products. After 48 hrs DCs were harvested and washed. The stimulated cells were stained for phenotype analysis or co-culture with allogeneic naïve CD4 T cells.
Tumor factors preparation: Tumor factors were obtained from supernatant of HS578T cells cultured in vitro or by sonication from tumor cell lines, human breast tumor tissue or tumors from humanized mice. Briefly, cell lines were culture in medium (RPMI supplemented with glutamine 2 mM, penicillin 50 U/ml, streptomycin 50 μg/ml, MEM non-essential amino acids 0.1 mM, HEPES buffer 10 mM, sodium pyruvate 0.1 mM and 10% of fetal calf serum), and when the cells reached 90% of confluence fresh medium was added and left the cells in culture for additional 48 hrs. For sonication cells or tissues were placed in PBS and were disrupted during 30 seconds at 4° C., with the power output adjusted at 4.5 level of the 60 sonic dismembrator (Fisher Scientific). Cellular debris were removed by centrifugation and the supernatant was collected and stored at −80° C.
The present inventors believe that DC activators can modulate the functions of DCs and reprogram the immune microenvironment (FIG. 4 A). FIGS. 4B, 4C and 4D show the results when DCs were purified from buffy coat of blood from healthy donors. DCs were cultured with medium alone or in the presence of tumor derived products (FIG. 4B). The curdlan treatment is 3 min at room temperature prior to adding tumor supernatant. After 48 hrs, DCs were harvested and washed. The stimulated cells were staining for phenotype (OX40L, pSTAT4 and pSTAT6). The supernatant of DC culture was used for cytokine (IL-12p70) examination (FIGS. 4C and 4D).

[4] = curdlan treatment prior to tumor supernatant, 48 hrs

β-glucan
breast tumor growth / development [1]: blocks breast tumor growth; also recorded: can inhibit breast tumor development; also recorded: inhibited breast tumor development
expansion of CD8+ T cells expressing CD103 (CD8+ T cells): expand CD8+ T cells expressing CD103
expansion of TNFα and IL-13-producing CD4+ T cells (inflammatory Th2 phenotype) [2]: can be inhibited; also recorded: do not expand TNFα and IL-13-producing CD4+ T cells; also recorded: non-expansion of TNFα and IL-13-producing CD4+ T cells
OX40L expression on mDCs (TSLP-mediated OX40L induction) [3, 4]: inhibition of TSLP-mediated OX40L induction; also recorded: can block OX40L expression
pSTAT4/pSTAT6 ratio in mDCs [3, 4]: pSTAT4/pSTAT6 ratio increase
IL-12p70 secretion by mDCs ([3]; mDCs activated by breast tumor supernatant, DC culture supernatant, 48 hrs): induction of IL-12p70 secretion; also recorded: secrete higher levels of IL-12p70; also recorded: secretion of high levels of IL-12p70
STAT6 phosphorylation in mDCs ([3]; tumor associated mDCs): blocking STAT6 phosphorylation; also recorded: block in STATE phosphorylation
